Measurements: patent publication US20230192657A1, “1,2,4-TRIAZOLINONE CB1 INHIBITORS” (Goldfinch Bio, Inc., priority 2020, published 2023)

Molecular target: CB1 receptor (Homo sapiens, UniProt P21554)
Assay: CB1 cAMP Antagonist Assay (LANCE Ultra cAMP kit)
Type: cell-based
Details: Flp-In CHO cells stably expressing the CB1 receptor; forskolin and CP55940 agonist at EC90; cAMP FRET readout

CB1 receptor, sequence (P21554 whole entry): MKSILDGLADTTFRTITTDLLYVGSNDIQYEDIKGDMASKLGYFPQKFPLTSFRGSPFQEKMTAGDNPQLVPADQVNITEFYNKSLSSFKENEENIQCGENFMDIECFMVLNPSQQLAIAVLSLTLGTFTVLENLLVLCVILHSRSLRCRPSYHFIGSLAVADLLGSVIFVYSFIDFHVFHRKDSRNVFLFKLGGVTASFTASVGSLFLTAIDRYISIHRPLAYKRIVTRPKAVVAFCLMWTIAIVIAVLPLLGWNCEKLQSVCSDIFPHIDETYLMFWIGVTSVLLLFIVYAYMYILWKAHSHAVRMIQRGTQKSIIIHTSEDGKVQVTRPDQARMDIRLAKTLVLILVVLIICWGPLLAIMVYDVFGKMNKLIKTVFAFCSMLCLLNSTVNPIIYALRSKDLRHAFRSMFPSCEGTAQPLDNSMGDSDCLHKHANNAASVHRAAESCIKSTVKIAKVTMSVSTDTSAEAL

Compound	IC50 [nM]
C[C@@H](C(=O)NCCO)n1c(N2C[C@@H](c3ccccc3)C(c3ccc(Cl)cc3)=N2)nn(Cc2ccc(Cl)cc2)c1=O [Compound 187, (2S)-2-[3-[(4R)-3-(4-chlorophenyl)-4-phenyl-4,5-dihydropyrazol-1-yl]-1-[(4-chlorophenyl)methyl]-5-oxo-1,2,4-triazol-4-yl]-N-(2-hydroxyethyl)propanamide]	> 5000
Cn1c(N2CC3(CCc4ccccc43)C(c3ccc(Cl)cc3)=N2)nn(CC2CCCCC2)c1=O (stereo in doubt) [Compound 140, 3-[(1R)-3-(4-chlorophenyl)-1,2,3,5-tetrahydrospiro[indene-1,4-pyrazol]-1-yl]-1-(cyclohexylmethyl)-4-methyl-4,5-dihydro-1H-1,2,4-triazol-5-one]	1000 to 5000
Cn1c(N2C[C@@H](c3ccccc3)C(c3ccc(Cl)cc3)=N2)nn(Cc2ccc(CN3CCOCC3)cc2)c1=O [Compound 134]	1000 to 5000
C[C@@H](C(N)=O)n1c(N2C[C@@H](c3ccccc3)C(c3ccc(Cl)cc3)=N2)nn(Cc2ccc(CN3CCOCC3)cc2)c1=O [Compound 159]	1000 to 5000
NC(=O)CCn1c(N2C[C@@]3(CCc4ccccc43)C(c3ccc(Cl)cc3)=N2)nn(-c2ccc(Cl)cc2)c1=O [Compound 128]	> 5000
C[C@H](C(N)=O)n1c(N2C[C@H](c3ccccc3)C(c3ccc(Cl)cc3)=N2)n[nH]c1=O [Compound 206]	> 5000
COCCn1c(N2C[C@@]3(CCc4ccccc43)C(c3ccc(Cl)cc3)=N2)nn(-c2ccc(Cl)cc2)c1=O [Compound 117]	> 5000
COCCn1c(N2C[C@]3(CCc4ccccc43)C(c3ccc(Cl)cc3)=N2)nn(-c2ccc(Cl)cc2)c1=O [Compound 110]	> 5000

Second part, the compound after the results:

IC50 [nM]	Compound
< 100	C[C@H](C(=O)NCCO)n1c(N2C[C@H](c3ccccc3)C(c3ccc(Cl)cc3)=N2)nn(Cc2ccc(Cl)cc2)c1=O [Compound 190, (2R)-2-[3-[(4S)-3-(4-chlorophenyl)-4-phenyl-4,5-dihydropyrazol-1-yl]-1-[(4-chlorophenyl)methyl]-5-oxo-1,2,4-triazol-4-yl]-N-(2-hydroxyethyl)propanamide]
100 to 1000	COc1ccc(Cn2nc(N3CC(c4ccccc4)C(c4ccc(Cl)cc4)=N3)n([C@H](C)C(N)=O)c2=O)cc1OC (stereo partly drawn) [Compound 197, (2R)-2-[3-[3-(4-chlorophenyl)-4-phenyl-4,5-dihydropyrazol-1-yl]-1-[(3,4-dimethoxyphenyl)methyl]-5-oxo-1,2,4-triazol-4-yl]propanamide]
< 100	Cc1ccc(Cn2nc(N3CC(c4ccccc4)C(c4ccc(Cl)cc4)=N3)n(C)c2=O)cc1F (stereo not drawn) [Compound 175]
100 to 1000	Cn1c(N2C[C@H](c3ccccc3)C(c3ccc(Cl)cc3)=N2)nn(CCc2ccc(C(N)=O)cc2)c1=O [Compound 202, 4-(2-[3-[(4S)-3-(4-chlorophenyl)-4-phenyl-4,5-dihydropyrazol-1-yl]-4-methyl-5-oxo-1,2,4-triazol-1-yl]ethyl)benzamide]
100 to 1000	Cn1c(N2CC(c3ccccc3)C(c3ccc(Cl)cc3)=N2)nn(Cc2ccc(C(N)=O)cc2)c1=O (stereo not drawn) [Compound 192, 4-([3-[3-(4-chlorophenyl)-4-phenyl-4,5-dihydropyrazol-1-yl]-4-methyl-5-oxo-1,2,4-triazol-1-yl]methyl)benzamide]
< 100	NC(=O)Cn1c(N2C[C@@H](c3ccccc3)C(c3ccc(Cl)cc3)=N2)nn(-c2ccc(Cl)cc2)c1=O [Compound 108, 2-[1-(4-chlorophenyl)-3-[(4R)-3-(4-chlorophenyl)-4-phenyl-4,5-dihydro-1H-pyrazol-1-yl]-5-oxo-4,5-dihydro-1H-1 ,2,4-triazol-4-yl]acetamide]
< 100	NC(=O)Cn1c(N2C[C@H](c3ccccc3)C(c3ccc(Cl)cc3)=N2)nn(Cc2ccc(Cl)cc2)c1=O [Compound 107, 2-[3-[(4S)-3-(4-chlorophenyl)-4-phenyl-4,5-dihydro-1H-pyrazol-1-yl]-1-[(4-chlorophenyl)methyl]-5-oxo-4,5-dihydro-1H-1,2,4-triazol-4-yl]acetamide]
